US20250268873A1, “COMBINATION OF DUAL ATM AND DNA-PK INHIBITORS AND IMMUNOTHERAPEUTIC AGENTS FOR USE IN CANCER THERAPY” (XRAD THERAPEUTICS, INC., priority 2021, published 2025)

Test system: FADU tumors
Assay: In vivo tumor growth delay study, FADU subcutaneous human xenograft mouse model
Method: Female NCr nu/nu mice (Crl:NU(NCr)-Foxn1nu, Strain 490) were obtained from Charles River at 5-6 weeks of age.
FADU or MDA-MB-231 cells were harvested during log phase growth for in vivo implantation. The resuspended cells were washed three times in phosphate buffered saline (PBS) before preparing the working dilution in PBS. FADU cells were diluted to 1×10^7 cells/mL and MDA-MB-231 cells were diluted to 5×10^7 cells/mL. Each mouse was injected subcutaneously in the right flank with 100 μL of the cellular suspension. Tumor growth was monitored until the tumors reached a target volume of at least 100 mm^3, at which point mice were randomly stratified into four treatment groups.
Following implantation of the tumor cell lines, mice were monitored once weekly for tumor development. Upon detection, tumors were measured in two dimensions using digital calipers. Tumors were treated after reaching at least 100 mm^3 and were measured two to three times weekly following enrollment in one of the treatment groups. The study endpoint was defined as tumor quintupling from the volume at time of treatment.
The vehicle used in this study was 0.5% (Hydroxypropyl)methyl cellulose (HPMC) and 0.2% Tween80 dissolved in deionized water. The pH of the vehicle was adjusted to 7.0-8.0 and the vehicle was stored at 4° C. On each day of in vivo treatment an appropriate mass of test compound was added to the vehicle at room temperature. The mixture was vortexed as necessary to generate a final concentration of 1.6 mg/mL.
In vivo tumor growth delay study was performed as follows. Following implantation of the tumor cell lines, mice were monitored once weekly for tumor development. Upon development of a tumor measuring at least 100 mm^3, tumor-bearing mice were stratified to one of 4 groups, utilizing 5 mice per group. Tumor volumes were between 100 and 500 mm^3. Vehicle or compound 569 (10 mg/kg) were administered by oral gavage once daily for three consecutive days (qd×3), alone or in combination with focal radiation. The delivered volume of vehicle or compound 569 was adjusted based on body weight of the individual animals. […]
Prism (GraphPad) was used for graphical presentations. […] In order to adjust for the differing tumor sizes at the start of treatment, the relative tumor volume was calculated by dividing the tumor volume at each time point by the volume at baseline. […] When an animal exited the study due to tumor quintupling, the final tumor volume recorded for the animal was included with the data used to calculate the median volume at subsequent time points. […] Differences in quintupling-free survival between the four treatment groups were evaluated with a log-rank test. […]

With `CC(C)NCCOc1ncc(-c2cc3c4c(cnc3cc2F)N(C)C(=O)C42CCC2)cc1NS(C)(=O)=O` [Compound 569, N-(5-(7′-Fluoro-3′-methyl-2′-oxo-2′,3′-dihydrospiro[cyclobutane-1,1′-pyrrolo[2,3-c]quinolin]-8′-yl)-2-(2-(isopropylamino)ethoxy)pyridin-3-yl)methanesulfonamide] the “median time to endpoint (tumor quintupling)” value (Group 2: Compound 569 10 mg/kg po qd×3 alone) was 14 days, the “tumor growth curves and quintupling-free survival” value (Group 2: Compound 569 10 mg/kg qd×3 alone vs vehicle (Group 1)) was “nearly identical to those for Group 1” and the “median time to endpoint (tumor quintupling)” value (Group 4: compound 569 10 mg/kg 45 min prior to 3 Gy focal radiation, qd×3) was 42 days. For the same compound, the “overall survival (quintupling-free)” value (Group 4: compound 569 + 3 Gy qd×3, P<0.01, logrank) was “significantly improved compared to Group 1, Group 2, and Group 3”.
